What was measured:
TNF-RE tkLuc = experiment: Effect of antiestrogens on TNF-RE tkLuc (Example 2); assay type: cell-based, human; conditions: for effect on the repression induced by E2: TNF-RE tkLuc; for activation of TNF-RE tkLuc: antiestrogens
breast cancer = conditions: cited from earlier work
ERβ [1] = molecular target: T1, ERβ (Homo sapiens, UniProt Q92731); experiment: ERE-tk-Luc luciferase activation in U2OS cells cotransfected with human ERβ; assay type: cell-based; design: expressed in transfected cells; host or cells: U2OS (human osteosarcoma); conditions: competition with the Astragalus extract
ERβ [2] = molecular target: T1, ERβ; conditions: in the presence of ERβ
ERβ [3] = molecular target: T1, ERβ; experiment: Repression of TNF-α activation of TNF-RE tkLuc in U2OS cells with ERβ; assay type: cell-based; design: expressed in transfected cells

T1 sequence (Q92731 whole entry): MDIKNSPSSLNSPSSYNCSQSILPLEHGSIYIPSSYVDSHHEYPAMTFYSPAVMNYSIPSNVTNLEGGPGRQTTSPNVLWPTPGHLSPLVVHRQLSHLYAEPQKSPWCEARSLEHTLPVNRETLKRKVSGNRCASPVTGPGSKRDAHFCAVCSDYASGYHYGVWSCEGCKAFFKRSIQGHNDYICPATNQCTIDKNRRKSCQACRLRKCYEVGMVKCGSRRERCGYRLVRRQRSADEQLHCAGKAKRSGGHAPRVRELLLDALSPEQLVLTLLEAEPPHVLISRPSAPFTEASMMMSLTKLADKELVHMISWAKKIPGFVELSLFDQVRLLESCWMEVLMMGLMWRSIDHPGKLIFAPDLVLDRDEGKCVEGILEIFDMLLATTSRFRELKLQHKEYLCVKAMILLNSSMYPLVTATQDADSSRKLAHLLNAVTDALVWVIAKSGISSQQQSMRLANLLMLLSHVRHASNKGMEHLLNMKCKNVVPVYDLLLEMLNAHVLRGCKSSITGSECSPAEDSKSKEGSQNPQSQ

Row | Compound | effect on the repression induced by E2 (TNF-RE tkLuc) | activation of TNF-RE tkLuc (TNF-RE tkLuc) [fold] | reduction of the risk of primary invasive breast cancer (breast cancer; BCPT, women at high risk for breast cancer) [%] | reduction of the risk of recurrences (breast cancer; five years of therapy, women with estrogen receptor-positive breast cancer) [%] | reduction of mortality from breast cancer (breast cancer; five years of therapy) [%] | effect on the extract's stimulatory effect on the ERE with ERβ (FIG. 6) (ERβ [1]) | repression of TNF-α activation of TNF-RE tkLuc (ERβ [2]) | repression of TNF-α activation of TNF-RE (ERβ [3]) [%]
1 | CC/C(=C(\c1ccccc1)c1ccc(OCCN(C)C)cc1)c1ccccc1 [tamoxifen] | abolished | 2 | 49 | 42 | 22 |  |  | 
2 | O=C(c1ccc(OCCN2CCCCC2)cc1)c1c(-c2ccc(O)cc2)sc2cc(O)ccc12 [raloxifene] | abolished | 2 |  |  |  | inhibited |  | 
3 | C[C@]12CC[C@@H]3c4ccc(O)cc4CC[C@H]3[C@@H]1CC[C@@H]2O [E2, estradiol] |  |  |  |  |  |  | 60-80% | 100
4 | C[C@]12CC[C@@H]3c4ccc(O)cc4C[C@@H](CCCCCCCCC[S+]([O-])CCCC(F)(F)C(F)(F)F)[C@H]3[C@@H]1CC[C@@H]2O (stereo partly drawn) [ICI 182, 780] | abolished | 2 |  |  |  |  |  | 

Source: patent US9220740B2
